From patent US10849878B2 (OBSHCHESTVO S OGRANICHENNOY OTVETSTVENNOSTYU “NORMOFARM”, priority 2015, dated 2020)
Values joined by “and” are separate entries in the source; they are usually repeats but may differ in a detail not shown here. Equal entries are not always repeated. Where two headings read alike, the source gives them in different places.

Assays:
male Wistar rats = conditions: for Dead / Survived: 6 rats
white Wistar rats [1] = test: transport stress simulation test (shaker, 240 min); assay type: in vivo, rat; design: AST in blood serum / ALT in blood serum / Creatinine in blood serum: unit not given here
Method: The anti-stress, anxiolytic and antidepressant effects of the claimed agent and compositions on its basis were determined as follows. […] The suspension test. Five animals from each group were used. Each animal was suspended for 24 hours. After that the sample of whole blood was taken from the sublingual vessels of that animal Then the animal was placed in a desiccator with diethyl ether. 60 minutes later a spinal decapitation of the animal was performed. The abdominal opening was performed and the number of ulcers on the inner surface of the stomach was counted. The obtained whole blood was placed in two test tubes. The whole blood was used to determine the number of eosinophils by the Duncker method. Serum was used to determine the biochemical composition of the blood. Adrenaline and norepinephrine were determined as biochemical indices. These characteristics are specific markers identifying the impact of stress factors of various etiologies. • 2. The transport stress simulation test. Five animals from each group were used. The animals were placed in cages fixed on a laboratory shutter. The duration of the test was 240 minutes. At the end of the test the animals were examined by the techniques described in paragraph 1. A sample of whole blood was taken to determine the number of eosinophils by the Duncker method. The blood serum was studied to measure the amount of enzymes: alanine aminotransferase (ALT), aspartate aminotransferase (AST), creatinine
The tests were carried out on 2-month-old rats of the Wistar line. The groups were selected according to the principle of paired counterparts.
During the course of the study the animals were selected from the formed groups of 10 animals each to participate in stress tests, 5 animals per test. The selection was made on the 7th, 14th, 21st day of the drug administration (experiments were performed on the same days right after selection). The animals were weighed weekly immediately before testing. The obtained data were processed by statistical methods of mathematical statistics. […] Water for injection produced by the “Bufus Novosibkhimpharm” was used as a solvent. The introduced volume was 1.5 ml. The solution was introduced at the same tine 2 hours after morning feeding. The first group was given water for injection by the same way. The volume of administration was 1.5 ml.
The rotating universal Shaker Unimax 10 was used as a model for simulating transport stress. The rotation speed was chosen at 120 rpm for 240 min A cage with five animals was fixed on the site. The rats stayed in the cage in a free state. A change in the reaction of animals with prolonged administration of the drug was observed. The sampling and decapitation process is described in Example 1.
Physiological, morphological and biochemical blood parametres were determined as markers of the impact of stress on animals, such as: individual and group behavior of animals, the number of enuresis acts, the number of defecation acts, and the number of excrement boluses; eosinophils in whole blood according to Duncker and the levels of ALT, AST enzymes and creatinine in the blood serum were measured.
Transport stress is a striking example of technological effect on animal and human body. […] Thus, it suits best as an indicator for the observation of the classical example of the development of the adaptive syndrome by Selye. In the experiment, a simulation of the transport impact on the rats was performed with the help of the laboratory shutter. Progressive 4 hour-long circular vibrations adversely affected the animals. The rats in the control group were constantly moving, colliding with each other trying to concentrate in the corners, where the amplitude of the oscillation was the highest. At the same time the number of defecation acts was higher. The animals behaved aggressively. The stronger ones tried to push out a weaker animal out of the corner.

white Wistar rats [2] = test: suspension test (24 h), antistress and anxiolytic activity; assay type: in vivo, rat; conditions: 60 mg/kg in the form of pills with cocoa, administration day 7
[3] = single oral dose 6000 mg/kg, 6000 mg/kg
[4] = single oral dose 7000 mg/kg, 7000 mg/kg
[5] = 30 mg/kg solution by gastric tube, administration day 7
[6] = 30 mg/kg solution by gastric tube, administration day 14
[7] = 30 mg/kg solution by gastric tube, administration day 21
[8] = 60 mg/kg in the form of pills with cocoa, administration day 7
[9] = 60 mg/kg in the form of pills with cocoa, administration day 14
[10] = 60 mg/kg in the form of pills with cocoa, administration day 21
[11] = 60 mg/kg solution by gastric tube, administration day 7
[12] = 60 mg/kg solution by gastric tube, administration day 14
[13] = 60 mg/kg solution by gastric tube, administration day 21
[14] = 120 mg/kg solution by gastric tube, administration day 7
[15] = 120 mg/kg solution by gastric tube, administration day 14
[16] = 120 mg/kg solution by gastric tube, administration day 21

In the case of `O=C1O[C@H]([C@@H](O)CO)C([O-])=C1O.[Li+]` [lithium ascorbate], the LD100 (male Wistar rats; oral, white rats of the Wistar line) is reported as 8000 mg/kg, the “Dead, %” value (male Wistar rats; single oral dose 1000 mg/kg) is reported as 0% and the Dead (male Wistar rats; single oral dose 1000 mg/kg) is reported as 0. The Survived (male Wistar rats; single oral dose 1000 mg/kg) was 6, the “Dead, %” value (male Wistar rats; single oral dose 2000 mg/kg) was 0% and the Dead (male Wistar rats; single oral dose 2000 mg/kg) was 0. The Survived (male Wistar rats; single oral dose 2000 mg/kg) was 6, the “Dead, %” value (male Wistar rats; single oral dose 3000 mg/kg) was 0% and the Dead (male Wistar rats; single oral dose 3000 mg/kg) was 0. The Survived (male Wistar rats; single oral dose 3000 mg/kg) was 6, the “Dead, %” value (male Wistar rats; single oral dose 4000 mg/kg) was 0% and the Dead (male Wistar rats; single oral dose 4000 mg/kg) was 0. The Survived (male Wistar rats; single oral dose 4000 mg/kg) was 6, the “Dead, %” value (male Wistar rats; single oral dose 5000 mg/kg) was 16.6% and the Dead (male Wistar rats; single oral dose 5000 mg/kg) was 1. The Survived (male Wistar rats; single oral dose 5000 mg/kg) was 5, the “Dead, %” value (male Wistar rats; single oral dose 6000 mg/kg) was 50% and the Dead (male Wistar rats; [3]) was 3 and 3/3. For the same compound, the Survived (male Wistar rats; [3]) was 3 and 3/3, the “Dead, %” value (male Wistar rats; single oral dose 7000 mg/kg) was 50% and the Dead (male Wistar rats; [4]) was 3 and 3/3. The Survived (male Wistar rats; [4]) was 3 and 3/3, the Survived (male Wistar rats; single oral dose 8000 mg/kg) was 0 and the “ALT in blood serum” value (white Wistar rats [1]; [5]) was 29.8 ± 8.45. The “AST in blood serum” value (white Wistar rats [1]; [5]) was 91.7 ± 7.29, the “Creatinine in blood serum” value (white Wistar rats [1]; [5]) was 36.5 ± 3.84 and the “Eosinophil count in whole blood” value (white Wistar rats [1]; [5]) was 794 ± 6.9. The “Number of boluses in defecation” value (white Wistar rats [1]; [5]) was 4.2 ± 0.4, the “ALT in blood serum” value (white Wistar rats [1]; [6]) was 32.1 ± 9.10 and the “AST in blood serum” value (white Wistar rats [1]; [6]) was 109.9 ± 9.67. The “Creatinine in blood serum” value (white Wistar rats [1]; [6]) was 48.1 ± 3.82, the “Eosinophil count in whole blood” value (white Wistar rats [1]; [6]) was 921 ± 9.1 and the “Number of boluses in defecation” value (white Wistar rats [1]; [6]) was 3.9 ± 0.4. The “ALT in blood serum” value (white Wistar rats [1]; [7]) was 31.7 ± 3.14, the “AST in blood serum” value (white Wistar rats [1]; [7]) was 121.2 ± 7.21 and the “Creatinine in blood serum” value (white Wistar rats [1]; [7]) was 46.3 ± 3.26. For the same compound, the “Eosinophil count in whole blood” value (white Wistar rats [1]; [7]) was 928 ± 10.7, the “Number of boluses in defecation” value (white Wistar rats [1]; [7]) was 3.5 ± 0.3 and the “ALT in blood serum” value (white Wistar rats [1]; [8]) was 22.7 ± 8.19. The “AST in blood serum” value (white Wistar rats [1]; [8]) was 68.8 ± 4.72, the “Creatinine in blood serum” value (white Wistar rats [1]; [8]) was 25.7 ± 4.30 and the “Eosinophil count in whole blood” value (white Wistar rats [1]; [8]) was 528 ± 5.8. For the same compound, the “Number of boluses in defecation” value (white Wistar rats [1]; [8]) was 7.2 ± 1.5, the “ALT in blood serum” value (white Wistar rats [1]; [9]) was 34.8 ± 6.83 and the “AST in blood serum” value (white Wistar rats [1]; [9]) was 119.7 ± 6.21. For the same compound, the “Creatinine in blood serum” value (white Wistar rats [1]; [9]) was 56.7 ± 6.44, the “Eosinophil count in whole blood” value (white Wistar rats [1]; [9]) was 938 ± 11.7 and the “Number of boluses in defecation” value (white Wistar rats [1]; [9]) was 5.2 ± 0.9. The “ALT in blood serum” value (white Wistar rats [1]; [10]) was 35.0 ± 4.29, the “AST in blood serum” value (white Wistar rats [1]; [10]) was 121. ± 4.29 and the “Creatinine in blood serum” value (white Wistar rats [1]; [10]) was 58.4 ± 9.30. For the same compound, the “Eosinophil count in whole blood” value (white Wistar rats [1]; [10]) was 947 ± 12.4, the “Number of boluses in defecation” value (white Wistar rats [1]; [10]) was 3.7 ± 0.3 and the “ALT in blood serum” value (white Wistar rats [1]; [11]) was 31.0 ± 3.15. The “AST in blood serum” value (white Wistar rats [1]; [11]) was 97.9 ± 5.04, the “Creatinine in blood serum” value (white Wistar rats [1]; [11]) was 39.6 ± 7.98 and the “Eosinophil count in whole blood” value (white Wistar rats [1]; [11]) was 822 ± 8.7. The “Number of boluses in defecation” value (white Wistar rats [1]; [11]) was 4.6 ± 0.4, the “ALT in blood serum” value (white Wistar rats [1]; [12]) was 33.1 ± 2.84 and the “AST in blood serum” value (white Wistar rats [1]; [12]) was 112.4 ± 6.23. The “Creatinine in blood serum” value (white Wistar rats [1]; [12]) was 48.3 ± 8.27, the “Eosinophil count in whole blood” value (white Wistar rats [1]; [12]) was 919 ± 4.1 and the “Number of boluses in defecation” value (white Wistar rats [1]; [12]) was 3.9 ± 0.4. The “ALT in blood serum” value (white Wistar rats [1]; [13]) was 32.4 ± 6.37, the “AST in blood serum” value (white Wistar rats [1]; [13]) was 115.5 ± 8.97 and the “Creatinine in blood serum” value (white Wistar rats [1]; [13]) was 45.6 ± 2.73. For the same compound, the “Eosinophil count in whole blood” value (white Wistar rats [1]; [13]) was 922 ± 9.3, the “Number of boluses in defecation” value (white Wistar rats [1]; [13]) was 3.7 ± 0.7 and the “ALT in blood serum” value (white Wistar rats [1]; [14]) was 32.4 ± 7.75. The “AST in blood serum” value (white Wistar rats [1]; [14]) was 107.1 ± 6.20, the “Creatinine in blood serum” value (white Wistar rats [1]; [14]) was 39.8 ± 6.13 and the “Eosinophil count in whole blood” value (white Wistar rats [1]; [14]) was 856 ± 4.2. The “Number of boluses in defecation” value (white Wistar rats [1]; [14]) was 5.0 ± 1.1, the “ALT in blood serum” value (white Wistar rats [1]; [15]) was 31.7 ± 7.32 and the “AST in blood serum” value (white Wistar rats [1]; [15]) was 110.3 ± 7.41. For the same compound, the “Creatinine in blood serum” value (white Wistar rats [1]; [15]) was 47.8 ± 1.46, the “Eosinophil count in whole blood” value (white Wistar rats [1]; [15]) was 901 ± 16.8 and the “Number of boluses in defecation” value (white Wistar rats [1]; [15]) was 4.1 ± 1.1. The “ALT in blood serum” value (white Wistar rats [1]; [16]) was 30.1 ± 7.42, the “AST in blood serum” value (white Wistar rats [1]; [16]) was 118.7 ± 4.48 and the “Creatinine in blood serum” value (white Wistar rats [1]; [16]) was 42.1 ± 2.97. The “Eosinophil count in whole blood” value (white Wistar rats [1]; [16]) was 907 ± 4.3, the “Number of boluses in defecation” value (white Wistar rats [1]; [16]) was 4.0 ± 1.0 and the “Adrenaline level in blood serum” value (white Wistar rats [2]) was 22.6 ± 4.27 µg/L.
